Experimental data published in patent US7595401B2, “Therapeutic compounds and their use in cancer” (Myriad Pharmaceuticals, Inc., priority 2006, dated 2009).

Biological target: purified human Hsp90
Assay: Binding Assay: fluorescence polarization with BODIPY-labeled geldanamycin
Settings: BODIPY-GM 10 nM, Hsp90 30 nM
Summary of the method: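 Fluorescence polarization competition with BODIPY-geldanamycin (10 nM final) and human Hsp90 (30 nM final) in HEPES-KOH pH 7.3 buffer with molybdate, NP-40, DTT; 2% DMSO, overnight at room temperature. Read 485/530 nm; percent inhibition from mP normalized to DMSO controls, fluorescent-compound points excluded.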

| Structure (SMILES) | IC50 [nM] | % Inhibition at 5 μM Compound Concentration [%] |
| --- | --- | --- |
| Nc1ncnc2c1nc(Sc1cc3c(cc1Br)OCO3)n2CC[C@H]1CC[C@@H](N)CC1 [Example 481, 9-[2-(cis-4-Aminocyclohexyl)ethyl] 8-[(6-bromo-1,3-benzodioxol-5-yl)thio]-9 H-purin-6-amine] | 50 |  |
| CCC(C)C(Cn1cnc(N)c2nc(Sc3cc(OC)ccc3OC)nc1-2)c1ccccc1 (centres unmarked) [Example 106, 8-(2,5-dimethoxy-phenylsulfanyl)-3-(3-methyl-2-phenyl-pentyl)-3H-purin-6-ylamine] |  | 41 |
| CCC(Cn1cnc(N)c2nc(Sc3cc(OC)ccc3OC)nc1-2)c1ccccc1 (centres unmarked) [Example 88] | 1300 |  |
| COc1ccc(OC)c(Sc2nc3c(N)ncnc3n2CCc2ccccc2OC)c1 [Example 85, 8-(2,5-Dimethoxy-phenylsulfanyl)-9-[2-(2-methoxy-phenyl)-ethyl]-9H-purin-6-ylamine] | 360 |  |
| CCOC(=O)N1CCCCC1CCn1c(Sc2cc3c(cc2Br)OCO3)nc2c(N)ncnc21 (centres unmarked) [Example 339, Ethyl 2-(2-{6-amino-8-[(6-bromo-1,3-benzodioxol-5-yl)thio]-9H-purin-9-yl}ethyl)piperidine-1-carboxylate] | 115 |  |
| CC(C)(C)OC(=O)N1CCCC[C@H]1CCn1c(Sc2cc3c(cc2Br)OCO3)nc2c(N)ncnc21 [Example 416, tert-Butyl (2S)-2-(2-{6-amino-8-[(6-bromo-1,3-benzodioxol-5-yl)thio]-9H-purin-9-yl}ethyl)piperidine-1-carboxylate] | 200 |  |
| CN1CCCC1CCn1cnc(N)c2nc(Sc3cc4c(cc3Br)OCO4)nc1-2 (centres unmarked) [Example 352, 8-[(6-Bromo-1,3-benzodioxol-5-yl)thio]-3-[2-(1-methylpyrrolidin-2-yl)ethyl]-3H-purin-6-amine] |  | 35 |
| COc1ccc(OC)c(Sc2nc3c(N)ncn(CCc4ccccc4)c-3n2)c1 [Example 2, 8-(2,5-dimethoxy-phenylsulfanyl)-3-phenethyl-3H-purin-6-ylamine] | 3470 |  |
| Nc1ncnc2c1nc(Sc1cc3c(cc1Br)OCO3)n2CCC1CCN(CC2CCCCC2)CC1 [Example 581, 8-[(6-Bromo-1,3-benzodioxol-5-yl)thio]-9-{2-[1-(cyclohexylmethyl)piperidin-4-yl]ethyl}-9 H-purin-6-amine] | 240 |  |
| CCC(Cn1c(Sc2cc(OC)ccc2OC)nc2c(N)ncnc21)c1ccccc1 (centres unmarked) [Example 87, 8-(2,5-Dimethoxy-phenylsulfanyl)-9-(2-phenyl-butyl)-9H-purin-6-ylamine] |  | 12 |
| Nc1ncn(CCc2ccccc2C(F)(F)F)c2nc(Sc3cc4c(cc3Br)OCO4)nc1-2 [Example 291, 8-[(6-Bromo-1,3-benzodioxol-5-yl)thio]-3-{2-[2-(trifluoromethyl)phenyl]ethyl}-3H-purin-6-amine] |  | 0.0 |
| COc1ccc(OC)c(Sc2nc3c(N)ncnc3n2CCc2ccc(Br)cc2)c1 [Example 71, 9-[2-(4-Bromo-phenyl)-ethyl]-8-(2,5-dimethoxy-phenylsulfanyl)-9H-purin-6-ylamine] | > 25000 | 41 |
| C=Cn1c(Sc2cc3c(cc2Br)OCO3)nc2c(N)ncnc21 [Example 498, 8-(6-bromo-benzo[1,3]dioxol-5-ylsulfanyl)-9-vinyl-9H-6-ylamine] | 525 |  |
| CCC(Cn1cnc(N)c2nc(Sc3cc4c(cc3Br)OCO4)nc1-2)c1ccccc1 (centres unmarked) [Example 58, 8-(6-bromo-benzo[1,3]dioxol-5-ylsulfanyl)-3-(2-phenyl-butyl)-3H-purin-6-ylamine] |  | 8 |
| CC(C)CN1CCCCC1CCn1c(Sc2cc3c(cc2Br)OCO3)nc2c(N)ncnc21 (centres unmarked) [Example 447, 8-[(6-Bromo-1,3-benzodioxol-5-yl)thio]-9-[2-(1-isobutylpiperidin-2-yl)ethyl]-9H-purin-6-amine] | 210 |  |
| COc1ccc(CCn2c(Sc3cc4c(cc3Br)OCO4)nc3c(N)ncnc32)cc1 [Example 250, 8-[(6-Bromo-1,3-benzodioxol-5-yl)thio]-9-[2-(4-methoxyphenyl)ethyl]-9H-purin-6-amine] | 900 |  |
| C[C@@H](NC(=O)OC(C)(C)C)C(=O)N1CCC[C@@H](CCn2c(Sc3cc4c(cc3Br)OCO4)nc3c(N)ncnc32)C1 [Example 734, tert-Butyl{(1R)-2-[(3S)-3-(2-{6-amino-8-[(6-bromo-1,3-benzodioxol-5-yl)thio]-9H-purin-9-yl}ethyl)piperidin-1-yl]-1-methyl-2-oxoethyl}carbamate] | > 2000 |  |
| Nc1ncn(CCc2ccccc2Cl)c2nc(Sc3ccc4c(c3)OC(F)(F)O4)nc1-2 [Example 295, 3-[2-(2-Chlorophenyl)ethyl]-8-[(2,2-difluoro-1,3-benzodioxol-5-yl)thio]-3H-purin-6-amine] |  | 0.0 |
| CC(C)(C)OC(=O)N1CCC[C@H](CCn2c(Sc3cc4c(cc3Br)OCO4)nc3c(N)ncnc32)C1 [Example 392, tert-Butyl (3R)-3-(2-{6-amino-8-[(6-bromo-1,3-benzodioxol-5-yl)thio]-9H-purin-9-yl}ethyl)piperidine-1-carboxylate] | 2900 |  |

| Structure (SMILES) | IC50 [nM] | % Inhibition at 5 μM Compound Concentration [%] |
| --- | --- | --- |
| COc1ccc(F)cc1Sc1nc2c(N)ncnc2n1CCc1ccccc1Cl [Example 316, 9-[2-(2-Chlorophenyl)ethyl]-8-[(5-fluoro-2-methoxyphenyl)thio]-9H-purin-6-amine] | 18000 |  |
| CCOC(=O)CNC(=O)N1CCC(CCn2cnc(N)c3nc(Sc4cc5c(cc4Br)OCO5)nc2-3)CC1 [Example 443, Ethyl N-{[4-(2-{6-amino-8-[(6-bromo-1,3-benzodioxol-5-yl)thio]-3H-purin-3-yl}ethyl)piperidin-1-yl]carbonyl}glycinate] |  | 36 |
| CC(C)(C)OC(=O)N1CCCC(CCn2cnc(N)c3nc(Sc4cc5c(cc4Br)OCO5)nc2-3)C1 (centres unmarked) [Example 345, tert-Butyl 3-(2-{6-amino-8-[(6-bromo-1,3-benzodioxol-5-yl)thio]-3H-purin-3-yl}ethyl)piperidine-1-carboxylate] |  | 3 |
| COc1c(F)cc(Sc2nc3c(N)ncnc3n2CCC2CCN(C(C)=O)CC2)cc1Cl [Example 569, 9-[2-(1-Acetylpiperidin-4-yl)ethyl]-8-[(3-chloro-5-fluoro-4-methoxyphenyl)thio]-9 H-purin-6-amine] | > 5000 |  |
| Nc1ncnc2c1nc(Sc1cc3c(cc1Br)OCO3)n2CCCc1ccccc1 [Example 43, 8-(6-Bromo-benzo[1,3]dioxol-5-ylsulfanyl)-9-(3-phenyl-propyl)-9H-purin-6-ylamine] | 700 |  |
| Nc1ncn(CCc2ccccc2Br)c2nc(Sc3cc4c(cc3Br)OCO4)nc1-2 [Example 150, 8-(6-bromo-benzo[1,3]dioxol-5-ylsulfanyl)-3-[2-(2-bromo-phenyl)-ethyl]-3H-purin-6-ylamine] |  | 0 |
| Nc1ncn(CCc2ccccc2)c2nc(Sc3ccc(Cl)cc3)nc1-2 [Example 18, 8-(4-chloro-phenylsulfanyl)-3-phenethyl-3H-purin-6-ylamine] |  | 0 |
| CS(=O)(=O)N1CCCC(CCn2c(Sc3cc4c(cc3Br)OCO4)nc3c(N)ncnc32)C1 (centres unmarked) [Example 369, 8-[(6-Bromo-1,3-benzodioxol-5-yl)thio]-9-{2-[1-(methylsulfonyl)piperidin-3-yl]ethyl}-9H-purin-6-amine] | 35 |  |
| C[C@H](NC(=O)OC(C)(C)C)C(=O)N1CCC(CCn2c(Sc3nc4cccc(Cl)c4s3)nc3c(N)ncnc32)CC1 [Example 773, tert-Butyl {(1S)-2-[4-(2-{6-amino-8-[(7-chloro-1,3-benzothiazol-2-yl)thio]-9H-purin-9-yl}ethyl)piperidin-1-yl]-1-methyl-2-oxoethyl}carbamate] | 390 |  |
| Nc1ncnc2c1nc(Sc1cc3c(cc1Br)OCO3)n2CCc1cccc(I)c1 [Example 153, 8-(6-Bromo-benzo[1,3]dioxol-5-ylsulfanyl)-9-[2-(3-iodo-phenyl)-ethyl]-9H-purin-6-ylamine] | 600 |  |
| Nc1ncn(CCC2CCN(C(=O)C3(C(F)(F)F)CC3)CC2)c2nc(Sc3cc4c(cc3Br)OCO4)nc1-2 [Example 527] |  | 19.00 |
| Nc1ncnc2c1nc(Sc1cc3c(cc1Br)OCO3)n2CCN1C(=O)CCCC1=O [Example 496, 1-(2-{6-Amino-8-[(6-bromo-1,3-benzodioxol-5-yl)thio]-9H-purin-9-yl}ethyl)piperidine-2,6-dione] | 81 |  |
| COc1ccc(OC)c(Sc2nc3c(N)ncn(CCc4cccc(I)c4)c-3n2)c1 [Example 138, 8-(2,5-dimethoxy-phenylsulfanyl)-3-[2-(3-iodo-phenyl)-ethyl]-3H-purin-6-ylamine] |  | 0 |
| Nc1ncnc2c1nc(Sc1cc3c(cc1Br)OCO3)n2CCC1CCN(S(=O)(=O)C(F)(F)F)CC1 [Example 387, 8-[(6-Bromo-1,3-benzodioxol-5-yl)thio]-9-(2-{1-[(trifluoromethyl)sulfonyl]piperidin 4-yl}ethyl)-9H-purin-6-amine] | > 8000 |  |
| Nc1ncnc2c1nc(Sc1cc3c(cc1Br)OCO3)n2CCC1CCN(C(=O)C2CCCC2)CC1 [Example 510, 8-[(6-Bromo-1,3-benzodioxol-5-yl)thio]-9-{2-[1-(cyclopentylcarbonyl)piperidin-4-yl]ethyl}-9 H-purin-6-amine] | 250 |  |
| CC(C)(C)OC(=O)Nc1ccc(CCn2c(Sc3cc4c(cc3Br)OCO4)nc3c(N)ncnc32)cc1 [Example 211, (4-{2-[6-Amino-8-(6-bromo-benzo[1,3]dioxol-5-ylsulfanyl)-purin-9-yl]-ethyl}-phenyl)carbamic acid tert-butyl ester] | > 25000 |  |
| COc1ccc(OC)c(Sc2nc3c(N)ncnc3n2CCc2c(F)cccc2Cl)c1 [Example 122, 9-[2-(2-chloro-6-fluoro-phenyl)-ethyl]-8-(2,5-dimethoxy-phenylsulfanyl)-9H-purine-6-ylamine] | 85 |  |
| COc1cccc(CCn2c(Sc3cc(OC)ccc3OC)nc3c(N)ncnc32)c1 [Example 35, 8-(2,5-Dimethoxy-phenylsulfanyl)-9-[2-(3-methoxy-phenyl)-ethyl]-9H-purin-6-ylamine] | 800 |  |
